In ChEMBL document CHEMBL1153358, “Amide analogs of antifungal dioxane-triazole derivatives: synthesis and in vitro activities” (Bioorg Med Chem Lett, 2009):
Values after ≈ are worked out from the molar mass of the structure shown.

Experiments:
Assay type in all cases: functional
Nakaseomyces glabratus = test: Antifungal activity against Candida glabrata ATCC 90030
Candida albicans [1] = test: Antifungal activity against fluconazole-resistant Candida albicans TIMM3164
Candida albicans [2] = test: Antifungal activity against Candida albicans SANK 51486
Aspergillus fumigatus [3] = test: Antifungal activity against Aspergillus fumigatus SANK 10569
Cryptococcus neoformans = test: Antifungal activity against Cryptococcus neoformans TIMM 1855
Aspergillus flavus = test: Antifungal activity against Aspergillus flavus SANK 18497
Candida tropicalis = test: Antifungal activity against Candida tropicalis ATCC 750
Candida albicans [4] = test: Antifungal activity against Candida albicans ATCC 64550
Pichia kudriavzevii = test: Antifungal activity against Candida krusei ATCC 6258
Aspergillus fumigatus [5] = test: Antifungal activity against Aspergillus fumigatus ATCC 26430
Candida albicans [6] = test: Antifungal activity against Candida albicans ATCC 24433
Candida parapsilosis = test: Antifungal activity against Candida parapsilosis ATCC 90018; details: Lodderomyces parapsilosis

Row | SMILES | MIC (Nakaseomyces glabratus) [µg/mL] | MIC (Candida albicans [1]) [µg/mL] | MIC (Candida albicans [2]) [µg/mL] | MIC (Aspergillus fumigatus [3]) [µg/mL] | MIC (Cryptococcus neoformans) [µg/mL] | MIC (Aspergillus flavus) [µg/mL] | MIC (Candida tropicalis) [µg/mL] | MIC (Candida albicans [4]) [µg/mL] | MIC (Pichia kudriavzevii) [µg/mL] | MIC (Aspergillus fumigatus [5]) [µg/mL] | MIC (Candida albicans [6]) [µg/mL] | MIC (Candida parapsilosis) [µg/mL]
1 | C[C@@H](S[C@H]1CO[C@H](c2ccc(C(=O)Nc3ccc(C#N)c(Cl)c3)cc2)OC1)[C@](O)(Cn1cncn1)c1ccc(F)cc1F | 1 (≈ 1.6 µM) | 0.016 (≈ 0.0256 µM) | ≤ 0.008 | 0.125 (≈ 0.2 µM) | 0.031 (≈ 0.0495 µM) | 0.25 (≈ 0.399 µM) | 0.063 (≈ 0.101 µM) | – | – | – | – | –
2 | C[C@@H](S[C@H]1CO[C@H](c2ccc(C(=O)N3CCOCC3)cc2)OC1)[C@](O)(Cn1cncn1)c1ccc(F)cc1F | > 4 | 0.25 (≈ 0.446 µM) | 0.063 (≈ 0.112 µM) | 4 (≈ 7.13 µM) | 0.125 (≈ 0.223 µM) | > 4 | 1 (≈ 1.78 µM) | – | – | – | – | –
3 | C[C@@H](S[C@H]1CO[C@H](c2ccc3cc(C(=O)Nc4ccc(C#N)cc4)ccc3c2)OC1)[C@](O)(Cn1cncn1)c1ccc(F)cc1F | > 4 | 0.031 (≈ 0.0483 µM) | ≤ 0.008 | 0.063 (≈ 0.0982 µM) | 0.063 (≈ 0.0982 µM) | 0.25 (≈ 0.39 µM) | 0.016 (≈ 0.0249 µM) | – | – | – | – | –
4 | C[C@@H](S[C@H]1CO[C@H](c2cccc(C(=O)Nc3ccc(C#N)cc3)c2)OC1)[C@](O)(Cn1cncn1)c1ccc(F)cc1F | 2 (≈ 3.38 µM) | 0.25 (≈ 0.423 µM) | ≤ 0.008 | 2 (≈ 3.38 µM) | 1 (≈ 1.69 µM) | > 4 | 1 (≈ 1.69 µM) | – | – | – | – | –
5 | C[C@@H](S[C@H]1CO[C@H](/C=C/S(=O)(=O)c2ccc(F)cc2)OC1)[C@](O)(Cn1cncn1)c1ccc(F)cc1F.O=C(O)/C=C\C(=O)O | 2 | 0.125 | ≤ 0.008 | 4 | 0.125 | > 4 | 0.5 | – | – | – | – | –
6 | Cc1ccc(NC(=O)c2ccc([C@H]3OC[C@H](S[C@H](C)[C@](O)(Cn4cncn4)c4ccc(F)cc4F)CO3)cc2)cc1 | 2 (≈ 3.44 µM) | 0.016 (≈ 0.0276 µM) | ≤ 0.008 | 0.063 (≈ 0.108 µM) | 0.031 (≈ 0.0534 µM) | 0.25 (≈ 0.431 µM) | ≤ 0.008 | – | – | – | – | –
7 | C[C@@H](S[C@H]1CO[C@H](c2ccc(C(=O)Nc3ccncc3)cc2)OC1)[C@](O)(Cn1cncn1)c1ccc(F)cc1F | > 4 | 0.031 (≈ 0.0546 µM) | ≤ 0.008 | 0.25 (≈ 0.44 µM) | 0.125 (≈ 0.22 µM) | 0.25 (≈ 0.44 µM) | 0.125 (≈ 0.22 µM) | – | – | – | – | –
8 | C[C@@H](S[C@H]1CO[C@H](c2ccc(C(=O)Nc3ccc(SC(F)(F)F)cc3)cc2)OC1)[C@](O)(Cn1cncn1)c1ccc(F)cc1F | 1 (≈ 1.5 µM) | 0.031 (≈ 0.0465 µM) | ≤ 0.008 | 0.25 (≈ 0.375 µM) | 0.016 (≈ 0.024 µM) | 0.5 (≈ 0.75 µM) | 0.031 (≈ 0.0465 µM) | – | – | – | – | –
9 | C[C@@H](S[C@H]1CO[C@H](c2ccc(C(=O)Nc3ccc(OCC(F)(F)C(F)F)cc3)cc2)OC1)[C@](O)(Cn1cncn1)c1ccc(F)cc1F | > 4 | 0.031 (≈ 0.0445 µM) | 0.016 (≈ 0.023 µM) | 0.125 (≈ 0.179 µM) | 0.063 (≈ 0.0904 µM) | 0.5 (≈ 0.718 µM) | 0.125 (≈ 0.179 µM) | – | – | – | – | –
10 | C[C@@H](S[C@H]1CO[C@H](c2ccc(C(=O)Nc3ccc(O)cc3)cc2)OC1)[C@](O)(Cn1cncn1)c1ccc(F)cc1F | > 4 | 0.063 (≈ 0.108 µM) | 0.016 (≈ 0.0275 µM) | 0.5 (≈ 0.858 µM) | 0.25 (≈ 0.429 µM) | 1 (≈ 1.72 µM) | 0.25 (≈ 0.429 µM) | – | – | – | – | –
11 | C[C@@H](S[C@H]1CO[C@H](c2ccc(C(=O)N3CCSCC3)cc2)OC1)[C@](O)(Cn1cncn1)c1ccc(F)cc1F | 4 (≈ 6.94 µM) | 0.125 (≈ 0.217 µM) | 0.016 (≈ 0.0277 µM) | 0.5 (≈ 0.867 µM) | 0.031 (≈ 0.0538 µM) | 4 (≈ 6.94 µM) | 0.5 (≈ 0.867 µM) | – | – | – | – | –
12 | C[C@@H](S[C@H]1CO[C@H](c2ccc(C(=O)Nc3ccc(C#N)cc3F)cc2)OC1)[C@](O)(Cn1cncn1)c1ccc(F)cc1F | > 4 | 0.016 (≈ 0.0262 µM) | ≤ 0.008 | 0.031 (≈ 0.0509 µM) | 0.063 (≈ 0.103 µM) | 0.125 (≈ 0.205 µM) | 0.031 (≈ 0.0509 µM) | – | – | – | – | –
13 | C[C@@H](S[C@H]1CO[C@H](/C=C/C(=O)Nc2ccc(F)cc2)OC1)[C@](O)(Cn1cncn1)c1ccc(F)cc1F | 4 (≈ 7.48 µM) | 0.125 (≈ 0.234 µM) | < 0.008 | 0.5 (≈ 0.935 µM) | 0.125 (≈ 0.234 µM) | 4 (≈ 7.48 µM) | 0.125 (≈ 0.234 µM) | – | – | – | – | –
14 | C[C@@H](S[C@H]1CO[C@H](c2ccc(C(=O)Nc3ccc(C#N)c(C#N)c3)cc2)OC1)[C@](O)(Cn1cncn1)c1ccc(F)cc1F | > 4 | 0.016 (≈ 0.0259 µM) | ≤ 0.008 | 0.25 (≈ 0.405 µM) | 0.063 (≈ 0.102 µM) | 0.5 (≈ 0.811 µM) | 0.031 (≈ 0.0503 µM) | – | – | – | – | –
15 | CC(=O)c1ccc(NC(=O)c2ccc([C@H]3OC[C@H](S[C@H](C)[C@](O)(Cn4cncn4)c4ccc(F)cc4F)CO3)cc2)cc1 | > 4 | 0.031 (≈ 0.0509 µM) | ≤ 0.008 | 0.063 (≈ 0.104 µM) | 0.125 (≈ 0.205 µM) | 0.25 (≈ 0.411 µM) | 0.125 (≈ 0.205 µM) | – | – | – | – | –
16 | C[C@@H](S[C@H]1CO[C@H](c2ccc(C(=O)Nc3ccc(Cl)cc3)cc2)OC1)[C@](O)(Cn1cncn1)c1ccc(F)cc1F | > 4 | ≤ 0.008 | ≤ 0.008 | 0.063 (≈ 0.105 µM) | 0.016 (≈ 0.0266 µM) | 0.125 (≈ 0.208 µM) | 0.016 (≈ 0.0266 µM) | – | – | – | – | –
17 | CCC(C)n1ncn(-c2ccc(N3CCN(c4ccc(OCC5COC(Cn6cncn6)(c6ccc(Cl)cc6Cl)O5)cc4)CC3)cc2)c1=O (stereo not drawn) [ITRACONAZOLE] | 1 (≈ 1.42 µM) | 0.25 (≈ 0.354 µM) | 0.031 (≈ 0.0439 µM) | 0.25 (≈ 0.354 µM) | 0.25 (≈ 0.354 µM) | 0.5 (≈ 0.709 µM) | 0.5 (≈ 0.709 µM) | 1 (≈ 1.42 µM) | 0.5 (≈ 0.709 µM) | 0.25 (≈ 0.354 µM) | 0.125 (≈ 0.177 µM) | 0.125 (≈ 0.177 µM)
18 | C[C@@H](S[C@H]1CO[C@H](c2ccc(C(=O)Nc3ccc(C#N)cc3)cc2F)OC1)[C@](O)(Cn1cncn1)c1ccc(F)cc1F | 2 (≈ 3.28 µM) | 0.031 (≈ 0.0509 µM) | ≤ 0.008 | 0.063 (≈ 0.103 µM) | 0.031 (≈ 0.0509 µM) | 0.25 (≈ 0.41 µM) | ≤ 0.008 | – | – | – | – | –
19 | C[C@@H](S[C@H]1CO[C@H](c2ccc(C(=O)N3CCN(c4ccccc4)CC3)cc2)OC1)[C@](O)(Cn1cncn1)c1ccc(F)cc1F | 2 (≈ 3.15 µM) | 0.125 (≈ 0.197 µM) | 0.016 (≈ 0.0252 µM) | 1 (≈ 1.57 µM) | 0.016 (≈ 0.0252 µM) | 2 (≈ 3.15 µM) | 0.5 (≈ 0.786 µM) | – | – | – | – | –
20 | C[C@@H](S[C@H]1CO[C@H](c2ccc(C(=O)Nc3ccc(F)cc3)cc2)OC1)[C@](O)(Cn1cncn1)c1ccc(F)cc1F | 2 (≈ 3.42 µM) | 0.016 (≈ 0.0274 µM) | ≤ 0.008 | 0.125 (≈ 0.214 µM) | 0.031 (≈ 0.053 µM) | 0.25 (≈ 0.428 µM) | 0.016 (≈ 0.0274 µM) | – | – | – | – | –
21 | C[C@@H](S[C@H]1CO[C@H](c2ccc(C(=O)Nc3nccs3)cc2)OC1)[C@](O)(Cn1cncn1)c1ccc(F)cc1F | 2 (≈ 3.49 µM) | 0.031 (≈ 0.054 µM) | ≤ 0.008 | 0.063 (≈ 0.11 µM) | 0.125 (≈ 0.218 µM) | 0.5 (≈ 0.872 µM) | 0.125 (≈ 0.218 µM) | – | – | – | – | –
22 | C[C@@H](S[C@H]1CO[C@H](/C=C/C(=O)c2ccc(F)cc2)OC1)[C@](O)(Cn1cncn1)c1ccc(F)cc1F.O=C(O)/C=C\C(=O)O | 1 | 0.125 | ≤ 0.008 | 1 | 0.125 | > 4 | 0.5 | – | – | – | – | –
23 | C[C@@H](S[C@H]1CO[C@H](/C=C/C=C/c2ccc(F)cc2)OC1)[C@](O)(Cn1cncn1)c1ccc(F)cc1F | 1 (≈ 1.93 µM) | 0.063 (≈ 0.122 µM) | ≤ 0.008 | 0.063 (≈ 0.122 µM) | 0.016 (≈ 0.0309 µM) | 0.25 (≈ 0.483 µM) | 0.25 (≈ 0.483 µM) | – | – | – | – | –
24 | C[C@@H](S[C@H]1CO[C@H](c2ccc(C(=O)Nc3ccc(Br)cc3)cc2)OC1)[C@](O)(Cn1cncn1)c1ccc(F)cc1F | > 4 | 0.016 (≈ 0.0248 µM) | ≤ 0.008 | 0.063 (≈ 0.0976 µM) | 0.016 (≈ 0.0248 µM) | 0.125 (≈ 0.194 µM) | ≤ 0.008 | – | – | – | – | –
